Results: publication PMC11926880, “Procognitive Potential of Neuroprotective Triazine 5-HT6 Receptor Antagonists Tested on Chronic Activity In Vivo in Rats: Computer-Aided Insight into the Role of Chalcogen-Differences on the Pharmacological Profile” (ACS Chemical Neuroscience, 2025)
Like-named read-outs stand apart in the source and are kept apart here.

What was measured:
SH-SY5Y cells [1] = assay: MTS assay 72 h, neurotoxic effect; format: cell-based, human; conditions: 10 and 50 μM
Description: SHSY5Y cells were grown in DMEM supplemented by 10% FBS, L-glutamine (2 mM), and penicillin (100u/mL)/streptomycin (100 μg/mL). The cell line was tested for mycoplasma using DAPI staining and the LookOut Mycoplasma PCR Detection Kit (MP0035, Merck). The cell line was authenticated after thawing by a morphology check, cell proliferation rate evaluation, and species verification by PCR. Bacteria contamination was excluded. […] Subsequently, cells were subjected to a CellTiter 96 AQueous One Solution Cell Proliferation Assay (Promega), according to the manufacturer’s protocol. The absorbance at 490 nm was evaluated to estimate the cell number.

[2] = design: method as in PMID 38190615, PMID 35228010; conditions: LC/MS after biotransformation in rLMs; cited from earlier work
SH-SY5Y cells [3] = assay: qRT-PCR of neurodegeneration-associated genes; format: cell-based, human; conditions: 10 and 50 μM, 24 h
[4] = pharmacokinetics in serum after single i.p. administration; format: in vivo, rat; conditions: for Vd/F: read-out: Vz/F; for half-life: read-out: t1/2λz
Description: Standard laboratory food (LSM-B) and filtered water as well as environment enrichment were freely available. Animals were randomly divided into treatment groups using a computer-based random order generator. All of the experiments were performed by two observers unaware of the treatment applied between 9:00 and 14:00 on separate groups of animals.
Rats were injected with the investigated compounds once (in pharmacokinetic studies) and for 21 days (in behavioral studies), and afterward, behavioral tests were conducted and tissue collection was done, as required. For pharmacokinetic studies, animals were fasted prior to dosing by withholding food but not water overnight. After dosing, the food was withheld for an additional 8 h. All animals were used only once. Animals were handled every day and weighed every other day in the chronic part of the experiment. Procedures involving animals and their care were conducted in accordance with current European Community and Polish legislations on animal experimentation. Additionally, all efforts were made to minimize animals’ suffering and to use only the number of animals necessary to produce reliable scientific data. […] The research program complies with the commonly accepted ‘3Rs’ (replacement and reduction of animals, refinement of experimental conditions, and procedures to minimize the harm to animals).
Moreover, five tissues (i.e., brain, heart, lungs, kidneys, and liver) were harvested and rinsed with cold saline. Blood was allowed to clot at room temperature for 15–20 min and then centrifuged (3000 rpm for 10 min). The obtained serum and tissues were stored at −80 °C until analysis.
Peak areas were integrated automatically using an EZChrome Elite v. 3.3.2 software (VWR, Darmstadt, Germany) chromatographic workstation.
The mobile phase consisting of methanol −10 mM potassium dihydrogen phosphate buffer (pH 4.6) and acetonitrile (51:40:9, v/v/v) was passed under vacuum through a 0.22 μm filter membrane.
Before analysis, tissue samples were thawed, weighed (200–250 mg), and placed in 5 mL plastic tubes with four volumes (w/v) of PBS (pH 7.4) and homogenized individually using a MICCRA D-1 homogenizer (ART Prozess & Labortechnik GmbH & Co., Germany). Serum (500 μL) or homogenate samples (500 μL) were mixed with an IS solution ((RS)-4-(4-methylpiperazin-1-yl)-6-(1-phenoxypropyl)-1,3,5-triazin-2-amine), 50 ng/mL in methanol. The samples were alkalized with 50 μL of 4 M sodium hydroxide solution, vortex-mixed, and extracted with 1 mL of ethyl acetate/hexane (30/70, v/v) mixture on a shaker (VXR Vibrax, IKA, Germany) for 20 min. After centrifugation (Eppendorf, Mini Spin Plus, Bionovo, Poland), the organic layers were transferred into new Eppendorf tubes containing 100 μL of methanol and 0.1 M sulfuric acid (10/90, v/v) mixture. Then, the samples were shaken and centrifuged again. Finally, 60–90 μL of each acidic layer was injected into the HPLC system.
The method was validated according to the procedures and acceptance criteria recommended for bioanalytical method validation for pharmacokinetic studies.[45]
The serum concentration–time data were analyzed by a noncompartmental method using the WinNonlin 8.2 nonlinear least-squares regression program (Pharsight Corporation, a Certara Company, Princeton, NJ, USA) to obtain pharmacokinetic parameters. […] The area under the serum concentration–time curve from time zero to time t (AUC0–t), where t is the time of the last measurable sample, was calculated according to the linear trapezoidal rule. The AUC from time zero to infinity (AUC0–∞) was estimated as AUC0–t + Ct/λz, where Ct was the serum concentration of the last measurable sample. The clearance (CL/F) was calculated as D/AUC0–∞, and the volume of distribution based on the terminal phase (Vz/F) was estimated as D/(λz·AUC0–∞), where F is the bioavailability of intraperitoneal administration.

[5] = 1.0 mg/kg i.p., single, 1 mg/kg
[6] = male, Wistar, rat, ip, 0.3 mg/kg i.p., single
[7] = male, Wistar, rat, ip, 0.3 mg/kg, 0.3 mg/kg i.p., single
[8] = male, Wistar, rat, ip, 1.0 mg/kg i.p., single
[9] = male, Wistar, rat, ip, 1 mg/kg, 1.0 mg/kg i.p., single

SMILES: CN1CCN(c2nc(N)nc(C(C)(C)Sc3ccc4ccccc4c3)n2)CC1 [WA-22, 4-(4-methylpiperazin-1-yl)-6-(2-(naphthalen-2-ylthio)propan-2-yl)-1,3,5-triazin-2-amine]
- neurotoxic effect (MTS) (SH-SY5Y cells [1]): no significant differences
- metabolic stability, % of remaining structure [2]: 74%
- NRF2 transcription (SH-SY5Y cells [3]): neither WA-22 nor PPK-32 were able to stimulate its transcription
- expression of NQO1, SOD1, and HO1 (SH-SY5Y cells [3]): induces the expression of the same genes, although with a lower significance and increase
- expression of pro-inflammatory gene NFkB (SH-SY5Y cells [3]): neither WA-22 nor PPK-32 were able to downregulate
- Cmax after 1.0 mg/kg i.p. in relation to 0.3 mg/kg i.p. [4]: 3.8 fold
- Cmax ([4]; 0.3 mg/kg i.p., single, 0.3 mg/kg): 18.65 ± 1.87 ng/mL
- Cmax [4, 5]: 71.05 ± 26.52 ng/mL
- Vz/F [4, 5]: 75.43 ± 28.17 L/kg
- t1/2λz [4, 5]: 2.8115 ± 0.7785 h
- AUC(0-t) [4, 6]: 14 ng·h/mL
- CL/F [4, 6]: 255 mL/min/kg
- MRT [4, 6]: 1.61 h
- Tmax [4, 6]: 5 min
- Cmax ([4]; male, Wistar, rat, ip, 0.3 mg/kg, 0.3 mg/kg i.p., single, read-out: Cmax): 18.7 ng/mL
- Vd/F [4, 7]: 28.1 ± 6.41 L/kg
- half-life [4, 7]: 1.29 ± 0.349 h
- AUC(0-inf) ([4]; male, Wistar, rat, ip, 1 mg/kg i.p., single): 55.9 ng·h/mL
- AUC(0-t) [4, 8]: 42.3 ng·h/mL
- CL/F [4, 8]: 313 mL/min/kg
- MRT [4, 8]: 2.7 h
- Tmax [4, 8]: 5 min
- Cmax ([4]; male, Wistar, rat, ip, 1 mg/kg, 1.0 mg/kg i.p., single, read-out: Cmax): 71.1 ng/mL
- Vd/F [4, 9]: 75.4 L/kg
- half-life [4, 9]: 2.81 h
